We go through 19 compounds from PubChem BioAssay AID330 (DTP/NCI, 2004).

SMILES strings stand for the structures. “And” between values parts separate entries of the source, which are not always exact repeats. Equal values may be shown once. Inconclusive results and toxic doses are left out. Peptide text beside a SMILES is read from it. * marks the point of attachment. Trt = c1ccc(C(c2ccccc2)(c2ccccc2)*)cc1; Cbz = O=C(OCc1ccccc1)*; Bz = O=C(c1ccccc1)*

For the test, the system named is P388 leukemia ip, CD2F1 mice, survival T/C. The experiment in a line: NCI In Vivo Anticancer Drug Screen. Data for tumor model P388 Leukemia (intraperitoneal) in CD2F1 (CDF1) mice. Particulars: endpoint: median survival time, higher = longer survival. The procedure, abridged: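 Mice carrying the transplanted tumor received test compound or vehicle. Survival was recorded in each group, and the value is the treated-group measurement divided by that of the vehicle-treated control group.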

The mark [1] stands for this setting: dose: 50.0 mg/kg/injection, schedule: Q01DX009 (ip), vehicle: saline with Tween-80.
[2] abbreviates: dose: 100.0 mg/kg/injection, schedule: Q01DX009 (ip), vehicle: saline with Tween-80.
The mark [3] stands for this setting: dose: 200.0 mg/kg/injection, schedule: Q01DX009 (ip), vehicle: saline with Tween-80.
Where [4] appears, read: dose: 50.0 mg/kg/injection, schedule: Q01DX005 (ip), vehicle: Klucel (hydroxypropylcellulose) (HPC).
Where [5] appears, read: dose: 100.0 mg/kg/injection, schedule: Q01DX005 (ip), vehicle: Klucel (hydroxypropylcellulose) (HPC).
[6] abbreviates: dose: 200.0 mg/kg/injection, schedule: Q01DX005 (ip), vehicle: Klucel (hydroxypropylcellulose) (HPC).
The mark [7] stands for this setting: dose: 50.0 mg/kg/injection, schedule: Q01DX005 (ip), vehicle: saline with Tween-80.
Where [8] appears, read: dose: 100.0 mg/kg/injection, schedule: Q01DX005 (ip), vehicle: saline with Tween-80.
The mark [9] stands for this setting: dose: 200.0 mg/kg/injection, schedule: Q01DX005 (ip), vehicle: saline with Tween-80.

In the case of `COC(=O)C1c2cc3c(c(O)c2C(OC)CC1(C)O)C(=O)c1c(O)cc2c(c1C3=O)OC1OC2(C)C(O)C(N(C)C)C1O` (centres undefined), the T/C was 156 % of control (dose: 3.16 mg/kg/injection, schedule: Q01DX009 (ip), vehicle: other); 161 % of control (dose: 5.0 mg/kg/injection, schedule: Q01DX009 (ip), vehicle: other); 168 % of control (dose: 6.25 mg/kg/injection, schedule: Q01DX009 (ip), vehicle: other); 171 % of control (dose: 10.0 mg/kg/injection, schedule: Q01DX009 (ip), vehicle: other); 168 % of control (dose: 12.5 mg/kg/injection, schedule: Q01DX009 (ip), vehicle: other); 171 % of control (dose: 20.0 mg/kg/injection, schedule: Q01DX009 (ip), vehicle: other). Moreover, the T/C was 198 % of control (dose: 25.0 mg/kg/injection, schedule: Q01DX009 (ip), vehicle: other) and 117 % of control (dose: 40.0 mg/kg/injection, schedule: Q01DX009 (ip), vehicle: other).

Take `CCOC(=O)c1cnc(N(C)C)nc1SC(=N)N`: the T/C is, setting by setting: (dose: 50.0 mg/kg/injection, schedule: Q04DX003 (ip), vehicle: saline) 100 % of control; (dose: 100.0 mg/kg/injection, schedule: Q04DX003 (ip), vehicle: saline) 95 % of control; (dose: 200.0 mg/kg/injection, schedule: Q04DX003 (ip), vehicle: saline) 104 % of control.

For the compound `CC(=O)NC(C(=O)O)C(C)(C)SN=O` (centres undefined), the T/C was 93 % of control under setting [1], 98 % of control under setting [2] and 95 % of control under setting [3].

In the case of `Cc1c2c(Cc3ccccc3)nccc2c(C)c2c1c1ccccc1n2Cc1ccccc1`, the T/C is, setting by setting: (dose: 6.25 mg/kg/injection, schedule: Q04DX003 (ip), vehicle: distilled water + Tween-80) 87 % of control; (dose: 12.5 mg/kg/injection, schedule: Q04DX003 (ip), vehicle: distilled water + Tween-80) 88 % of control; (dose: 50.0 mg/kg/injection, schedule: Q04DX003 (ip), vehicle: distilled water + Tween-80) 86 % of control.

Regarding `c1ccc2c3c(ccc2c1)OCCOc1ccc2ccccc2c1-3`, the T/C (dose: 100.0 mg/kg/injection, schedule: Q04DX002 (ip), vehicle: saline with Tween-80) was 99 % of control; the T/C (dose: 200.0 mg/kg/injection, schedule: Q04DX002 (ip), vehicle: saline with Tween-80) was 91 % of control; the T/C (dose: 400.0 mg/kg/injection, schedule: Q04DX002 (ip), vehicle: saline with Tween-80) is 90 % of control.

As to `COC(=O)C(CSC(=O)c1ccccc1)NC(=O)CNC(=O)CNC(=O)C(CCCCNC(=O)OCc1ccccc1)NC(=O)CNC(=O)C(CSC(c1ccccc1)(c1ccccc1)c1ccccc1)NC(=O)OCc1ccccc1` (centres undefined) (Cbz-C(Trt)GK(Cbz)GGC(Bz)-OMe; configuration not given here), the T/C is, setting by setting: (dose: 60.0 mg/kg/injection, schedule: Q01DX005 (ip), vehicle: Klucel (hydroxypropylcellulose) (HPC)) 97 % of control; (dose: 120.0 mg/kg/injection, schedule: Q01DX005 (ip), vehicle: Klucel (hydroxypropylcellulose) (HPC)) 97 % of control; (dose: 240.0 mg/kg/injection, schedule: Q01DX005 (ip), vehicle: Klucel (hydroxypropylcellulose) (HPC)) 88 % of control.

`CC1OC1C(=O)C1(O)C(C)C(O)C23OC2(C(O)c2c(O)cccc2C3=O)C1O` (centres undefined): the T/C was 104 % of control and 118 % of control (dose: 1.0 mg/kg/injection, schedule: Q01DX009 (ip), vehicle: Klucel (hydroxypropylcellulose) (HPC)); 154 % of control (dose: 2.0 mg/kg/injection, schedule: Q01DX009 (ip), vehicle: Klucel (hydroxypropylcellulose) (HPC)); 121 % of control (dose: 4.0 mg/kg/injection, schedule: Q01DX009 (ip), vehicle: Klucel (hydroxypropylcellulose) (HPC)).

Consider `CC(=O)Nc1ccc2c(=O)n(O)c(=O)[nH]c2c1`, for which the T/C is 102 % of control under setting [4], 103 % of control under setting [5] and 106 % of control under setting [6].

As to `Cn1c(=O)c2[nH]cnc2n(C)c1=O` (tested in a mixture with another compound), the T/C runs as follows: under setting [1], 104 % of control; under setting [2], 95 % of control; under setting [3], 104 % of control.

With `CC(OS(C)(=O)=O)C(C)OS(C)(=O)=O` (centres undefined), the T/C is 89 % of control (dose: 100.0 mg/kg/injection, schedule: Q04DX003 (ip), vehicle: Klucel (hydroxypropylcellulose) (HPC)); 116 % of control (dose: 200.0 mg/kg/injection, schedule: Q04DX003 (ip), vehicle: Klucel (hydroxypropylcellulose) (HPC)); 120 % of control (dose: 400.0 mg/kg/injection, schedule: Q04DX003 (ip), vehicle: Klucel (hydroxypropylcellulose) (HPC)).

For `O=c1c2ccccc2c(=O)c2c1cc(Cl)c1[nH]c3c([nH]c12)c(Cl)cc1c(=O)c2ccccc2c(=O)c13`, the T/C was 97 % of control under setting [4], 96 % of control under setting [5] and 94 % of control under setting [6].

As to `COc1cccc2c1C(=O)c1c(O)c3c(c(O)c1C2=O)CC(O)(/C(CO)=N/NC(=O)CCC(=O)N/N=C(\CO)C1(O)Cc2c(O)c4c(c(O)c2C(OC2CC(N)C(O)C(C)O2)C1)C(=O)c1c(OC)cccc1C4=O)CC3OC1CC(N)C(O)C(C)O1` (centres undefined), the T/C reads like this: (dose: 0.78 mg/kg/injection, schedule: Q01DX009 (ip), vehicle: water) 152 % of control; (dose: 1.56 mg/kg/injection, schedule: Q01DX009 (ip), vehicle: water) 170 % of control and 196 % of control; (dose: 2.35 mg/kg/injection, schedule: Q04DX003 (ip), vehicle: water) 110 % of control; (dose: 3.13 mg/kg/injection, schedule: Q01DX009 (ip), vehicle: water) 218 % of control and 222 % of control; (dose: 4.7 mg/kg/injection, schedule: Q04DX003 (ip), vehicle: water) 114 % of control; (dose: 6.25 mg/kg/injection, schedule: Q01DX009 (ip), vehicle: water) 114 % of control and 309 % of control. The T/C is 121 % of control and 124 % of control (dose: 9.4 mg/kg/injection, schedule: Q04DX003 (ip), vehicle: water); 102 % of control and 86 % of control (dose: 12.5 mg/kg/injection, schedule: Q01DX009 (ip), vehicle: water); 154 % of control (dose: 18.8 mg/kg/injection, schedule: Q04DX003 (ip), vehicle: water); 181 % of control (dose: 37.5 mg/kg/injection, schedule: Q04DX003 (ip), vehicle: water); 118 % of control (dose: 75.0 mg/kg/injection, schedule: Q04DX003 (ip), vehicle: water).

For `CC(C)(C)[Si](C)(C)O[C@H]1C[C@@H](O[Si](C)(C)C(C)(C)C)C=C1S(=O)(=O)c1ccccc1`, the T/C (dose: 12.5 mg/kg/injection, schedule: Q01DX005 (ip), vehicle: Klucel (hydroxypropylcellulose) (HPC)) was 101 % of control; the T/C (dose: 25.0 mg/kg/injection, schedule: Q01DX005 (ip), vehicle: Klucel (hydroxypropylcellulose) (HPC)) is 107 % of control; the T/C under setting [4] was 111 % of control.

Consider `O=C1C(=O)c2ncccc2-c2ncccc21`, for which the T/C was 113 % of control (dose: 7.5 mg/kg/injection, schedule: Q01DX005 (ip), vehicle: saline with Tween-80) and 95 % of control (dose: 15.0 mg/kg/injection, schedule: Q01DX005 (ip), vehicle: saline with Tween-80).

Take `C(=N[C@H]1CCCC[C@H]1N=Cc1ccccn1)c1ccccn1`: the T/C by setting is: under setting [7], 95 % of control; under setting [8], 90 % of control; under setting [9], 101 % of control.

Regarding `CCOc1c(N=Nc2ccccc2OC)c(-c2ccccc2)nn1C(N)=S`, the T/C under setting [7] was 88 % of control, the T/C under setting [8] was 87 % of control and the T/C under setting [9] is 98 % of control.

As to `Nc1ccc2nc[nH]c2c1`, the T/C (dose: 25.0 mg/kg/injection, schedule: Q04DX002 (ip), vehicle: Klucel (hydroxypropylcellulose) (HPC)) is 101 % of control; the T/C (dose: 50.0 mg/kg/injection, schedule: Q04DX002 (ip), vehicle: Klucel (hydroxypropylcellulose) (HPC)) is 104 % of control; the T/C (dose: 100.0 mg/kg/injection, schedule: Q04DX002 (ip), vehicle: Klucel (hydroxypropylcellulose) (HPC)) is 101 % of control and 90 % of control.

As to `O=C1NC(=O)C2(CCc3ccccc3C2)N1` (centres undefined), the T/C by setting is: under setting [1], 100 % of control; under setting [2], 100 % of control; under setting [3], 96 % of control; (dose: 400.0 mg/kg/injection, schedule: Q01DX009 (ip), vehicle: saline with Tween-80) 97 % of control.

In the case of `CC(=O)NC#N.CCN(CC)CC.[CH-]1CCCCC1.[CH-]1CCCCC1.[CH-]1CCCCC1.[Cl-].[Sn+4]`, the T/C (dose: 3.12 mg/kg/injection, schedule: Q01DX005 (ip), vehicle: saline with Tween-80) is 106 % of control and the T/C (dose: 6.25 mg/kg/injection, schedule: Q01DX005 (ip), vehicle: saline with Tween-80) is 105 % of control.
